Experimental data as given in PubChem BioAssay (NCI).
Values joined by “and” are separate entries in the source; they are usually repeats but may differ in a detail not shown here. Identical values can stand only once.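 Results reflect a 48-hour exposure of cells in 96-well plates to compound at five concentrations. Abbreviation: GI50, concentration required for 50% inhibition of growth. TGI is the concentration that stops growth completely.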

Legend:
Assay in all cases: NCI anticancer screen, dose series, 48 h
SF-268 CNS = test system: SF-268 CNS
CCRF-CEM leukemia = test system: CCRF-CEM leukemia
A498 renal = test system: A498 renal
RXF 393 renal = test system: RXF 393 renal
RPMI-8226 leukemia = test system: RPMI-8226 leukemia
SN12C renal = test system: SN12C renal
MALME-3M melanoma = test system: MALME-3M melanoma
BT-549 breast = test system: BT-549 breast
MOLT-4 leukemia = test system: MOLT-4 leukemia
786-0 renal = test system: 786-0 renal

| SMILES | GI50 (SF-268 CNS) [µM] | TGI (SF-268 CNS) | GI50 (CCRF-CEM leukemia) [µM] | TGI (CCRF-CEM leukemia) [µM] | GI50 (A498 renal) [µM] | TGI (A498 renal) | GI50 (RXF 393 renal) [µM] | TGI (RXF 393 renal) | GI50 (RPMI-8226 leukemia) [µM] | TGI (RPMI-8226 leukemia) [µM] | GI50 (SN12C renal) [µM] | TGI (SN12C renal) [µM] | GI50 (MALME-3M melanoma) [µM] | TGI (MALME-3M melanoma) | GI50 (BT-549 breast) [µM] | TGI (BT-549 breast) [µM] | GI50 (MOLT-4 leukemia) [µM] | TGI (MOLT-4 leukemia) [µM] | GI50 (786-0 renal) [µM] | TGI (786-0 renal) |
| --- | --- | --- | --- | --- | --- | --- | --- | --- | --- | --- | --- | --- | --- | --- | --- | --- | --- | --- | --- | --- |
| CN(C)CCCNc1nn2c(=O)c3ccccc3nc2c2ccccc12 | 7.25 | 37.9 µM | 13.7 | 48.5 | 9.06 | 21.4 µM | 14.2 | 30.6 µM | 11.9 | 33.7 | 5.95 | > 100 | 11.8 | 29.8 µM | 10.9 | 45.7 | 2.47 | 7.16 | 10.9 | 23.7 µM |
| CC[C@@]1(O)C(=O)NCc2c1cc1n(c2=O)Cc2cc3ccccc3nc2-1 | 0.706 | > 100 µM | 0.253 |  | 3.95 | 53.1 µM | 6.11 | > 80.6 µM | 2.15 | > 43.3 | 2.03 | > 32.6 | 83.9 | > 100 µM | 9.04 | > 100 | 0.3 | 2.2 | 1.63 | 9.93 µM |
| C/C1=C\[C@H](C)C[C@H](C)OC(=O)C[C@H](c2ccc(O)cc2)NC(=O)[C@@H](Cc2c(Br)[nH]c3ccccc23)N(C)C(=O)[C@H](C)NC(=O)[C@@H](C)C1 | 0.0352 | 0.443 µM and 0.166 µM | 0.114 | > 23.7 | 0.0703 | 0.137 µM and 0.5 µM | 0.228 | 0.464 µM and 0.615 µM | < 0.0176 |  | 0.0738 | > 45.9 | 0.032 | 0.404 µM and 0.196 µM |  | 0.0669 | 0.0764 | 4.54 | 0.0275 | 0.384 µM and 0.255 µM |
| O=C1c2ccccc2C(=O)c2c(NCCCNCCO)ccc(NCCCNCCO)c21 |  | 17.9 µM |  | 23.1 |  | 31.1 µM |  | 18.2 µM |  | 53.1 |  | 14.4 |  | 27.9 µM |  | 30.7 |  | 18.5 |  | 16.6 µM |
| C/C(=C\c1ccc(Cl)cc1)C(C)(C)C(=O)O |  | > 100 µM |  | > 100 |  | > 100 µM |  | > 100 µM |  | > 100 |  | > 100 |  | > 100 µM |  | > 100 |  | > 100 |  | > 100 µM |
| COc1ccc(-c2ccc3c(NC(=O)C4CC4)n[nH]c3n2)cc1 | 11.5 | > 25 µM | > 25 | > 25 | > 25 | > 25 µM | 15 | > 25 µM | > 25 | > 25 | > 25 | > 25 | > 25 | > 25 µM | > 14.3 | > 25 | > 25 | > 25 | > 20.1 | > 25 µM |
| COc1ccc(-c2ccc(/C=C/C(=O)NO)cc2)cc1 | 0.982 | 5.58 µM | 0.0481 | > 100 | 1.4 | 3.76 µM | 0.554 | 3.03 µM | 0.697 | > 100 | 0.864 | 10.9 | 0.65 | 11.8 µM | 1.53 | 25.9 | 0.375 |  | 0.99 | 3.79 µM |
